In US20100249018A1, “COMPOSITION AND METHOD FOR PREVENTING AND TREATING IMMUNE-RELATED DISORDER” (priority 2007, published 2010):
Square brackets hold non-standard residues; d marks the D form. Ends that are not written are not given here. * marks the point of attachment. Boc = CC(C)(C)OC(=O)*; For = O=C*

Assays:
[1] = test system: CLP mice; assay: Survival in CLP (cecal ligation and puncture) sepsis mouse model; format: in vivo; details: for therapeutic effect of FPR ligands and scrambled peptide / therapeutic effect of WKYMVm analogs on experimental sepsis: 4 mg/kg subcutaneous four times at 2, 14, 26, 38 h post-CLP; for therapeutic effect of FPR ligands and scrambled peptide: FIG. 1g; for reversal of the therapeutic effects of WKYMVm by antagonist pre-treatment: antagonist 4 mg/kg subcutaneous 2 h before CLP and 2 h before each WKYMVm (4 mg/kg) treatment, FIG. 1d; for therapeutic effect of WKYMVm analogs on experimental sepsis: ICR mice, survival up to 10 days, FIG. 1h
Method: Male WT ICR mice and IL-12R 2-, IFN-γ-deficient, and WT C57BL/6 mice (kindly donated from Y. C. Sung, POSTECH, Republic of Korea) were used for experimental sepsis model, as previously described (Yan, J. J., Nat. Med. 10:161-167, 2004). All experiments involving animals adhered to the guidelines and received the approval of the Institutional Review Committee for Animal Care and Use at Dong-A University. For CLP, mice were anesthetized with pentothal sodium (50 mg/kg, intraperitoneal) and a small abdominal midline incision was made to expose the cecum. The cecum was then ligated below the ileocecal valve, punctured twice through both surfaces (or once for the measurement of cytokine production) using a 22-gauge needle and the abdomen was closed. Sham CLP mice were subjected to the same procedure, but without ligation and puncture of the cecum. Survival was monitored once daily for 10 days.
To investigate whether WKYMVm has a therapeutic effect on experimental sepsis, CLP was performed on albino ICR (Institute of Cancer Research) mice, and their survival was monitored for up to 10 days. […] Various doses of WKYMVm were injected subcutaneously four times into CLP mice at 2, 14, 26, and 38 h post-CLP.
To examine the effect of WKYMVm treatment, mice were injected subcutaneously with various doses of the peptide or with PBS as a negative control beginning 2 h after CLP. […] Various doses of WKYMVm were injected subcutaneously four times into CLP mice at […] post-CLP.
CLP mice were given zero, one, two, three, four, or five injections of WKYMVm (4 mg/kg, subcutaneous).
To evaluate the roles of FPR1 and FPR2, an FPR1 antagonist [N-t-butoxycarbonyl-Phe-Leu-Phe-Leu-Phe (Boc-PLPLP) (SEQ ID NO:12)] (La, M., et al., FASEB J. 15:2247-2256) and an FPR2 antagonist [Trp-Arg-Trp-Trp-Trp-Trp; WRWWWW (WRW^4) (SEQ ID NO:13)] (Bae, Y. S et al., J. Immunol. 173:607-614.) were administered prior to WKYMVm treatment in CLP mice. […] Boc-PLPLP (4 mg/kg), WRW^4 (4 mg/kg), or Boc-PLPLP (4 mg/kg)+WRW^4 (4 mg/kg) was injected subcutaneously 2 h before CLP. After CLP, Boc-PLPLP (4 mg/kg) or WRW^4 (4 mg/kg) was injected subcutaneously four times at 12-h intervals 2 h before WKYMVm treatment (4 mg/kg, subcutaneous).
Statistical analysis. Survival data were analyzed using the log-rank test. All other data were evaluated using ANOVA. The Bonferroni test was used for post hoc comparisons and statistical significance was set a priori at P<0.05.
FPR-family agonists (WKYMVm (SEQ ID NO:1), WKYMVM(SEQ ID NO:14), fMLF(SEQ ID NO:15) and MMK-1 (SEQ ID NO:16)) or scrambled peptide (VWMYmK: SEQ ID NO: 17) (4 mg/kg, respectively) were injected subcutaneously four times to CLP mice at 2, 14, 26, and 38 h post-CLP.
To investigate whether the analogs of WKYMVm(SEQ ID NO:1), WRYMVm(SEQ ID NO: 2), WKWMVm(SEQ ID NO: 3), WKRMVm(SEQ ID NO: 4), WKFMVm(SEQ ID NO: 5), WHYMVm(SEQ ID NO: 6), WKYMYm(SEQ ID NO: 7), WKYMFm(SEQ ID NO: 8), WKYMWm(SEQ ID NO: 9), WKYMVV(SEQ ID NO: 10) and WKEMVm(SEQ ID NO: 11) have therapeutic effects on experimental sepsis, CLP was performed on albino ICR (Institute of Cancer Research) mice, and their survival was monitored for up to 10 days. […] 4 mg/kg of WKYMVm or each analog of WKYMVm was injected subcutaneously four times into CLP mice at 2, 14, 26, and 38 h post-CLP (FIG. 1h).
To investigate the role of Th1 cytokines (IL-12 and IFN-γ) on WKYMVm-induced survival effect after sepsis, the CLP model was applied to IL-12Rβ2- and IFN-γ-deficient mice (C57BL/6 background). […] WT C57BL/6 or IL-12Rβ2-deficient mice were subcutaneously injected with WKYMVm (4 mg/kg) or PBS four times to CLP mice 2, 14, 26, and 38 h post-CLP. In FIG. 5d, WT C57BL/6 or IFN-γ-deficient mice were subcutaneously injected with WKYMVm (4 mg/kg) or PBS four times to CLP mice 2, 14, 26, and 38 h post-CLP. Data are expressed as the mean±standard error. *P<0.05; **P<0.01 compared with vehicle (c, d). n=10-16 mice per group (c,d) […]

[2] = test system: splenocytes of Th1 mouse model; assay: Splenocyte proliferation assay, Th1 mouse model (OVA+LPS); format: in vivo; details: OVA+LPS immunized mice; 72 h incubation with OVA; compared to sham-treated mice; FIG. 4e
Method: To generate the Th1 and Th2 mouse models (FIG. 4b), 6-week-old C57BL/6 WT mice were twice immunized intraperitoneally with 75 μg of OVA+10 μg of LPS or 2 mg of alum on days 0 and 7 and then challenged intraperitoneally with 50 μg of OVA on days 14, 15, and 16. Isolated splenocytes were subjected to a cell proliferation assay with and without OVA incubation. Briefly, splenocytes were harvested in RPMI 1640 media and incubated (2×10^5 cells/well) in 96-well flat-bottom plates at 37° C. for 96 h in medium alone or with 5, 50 or 500 μg OVA/ml. The example measured cellular thymidine incorporation following a 72 h culture period with 1 μCi [^3H]thymidine.
Because IL-2 promotes T-cell proliferation (Benczik, M., et al., Immunol. Invest. 33:109-142), the effect of FPR activation by WKYMVm on Th1 and Th2 cell proliferation was evaluated using inert antigens. WKYMVm (4 mg/kg) was injected subcutaneously four times into CLP mice 2, 14, 26, and 38 h post-CLP. Separate groups of animals were given sham, CLP+PBS, or CLP+WKYMVm treatment. Data are expressed as the mean±standard error (n=8). *P<0.05; **P<0.01 compared with CLP+PBS. […]
Protocol for the Th1 and Th2 mice (FIG. 4d) was described below. […] Data are expressed as the mean±standard error (n=5 for e, f), and * indicates P<0.05 compared to OVA+PBS group; ** indicates P<0.05 versus the other groups. […]

[3] = test system: mouse neutrophils; assay: H2O2 generation in mouse neutrophils in vitro; format: cell-based; details: antagonist 10 μM prior to WKYMVm (100 nM); FIG. 3d
Method: Because the bactericidal effect of phagocytes is related with H2O2 production (Hampton, M. B., et al., Blood. 92:3007-3017), the effect of WKYMVm on H2O2 generation in mouse neutrophils was evaluated. […] Mouse neutrophils were stimulated with vehicle (PBS) or WKYMVm (1-1000 nM) for 15 min. Neutrophils isolated from sham, CLP−, or CLP+WKYMVm-treated mice were stimulated with 100 nM PMA for 1 h. Freshly isolated neutrophils from normal mice were stimulated with various concentrations of WKYMVm for 10 min in the presence of cytochalasin B (5 μM).
To investigate the role of FPR1 and FPR2, neutrophils were preincubated with Boc-PLPLP (10 μM), WRW^4 (10 μM), or vehicle (DMSO) for 30 minutes prior to adding WKYMVm (100 nM) for 10 min. H2O2 in the supernatant was measured using an H2O2 assay kit (Molecular Probes).
Boc-PLPLP (10 μM), WRW^4 (10 μM), or Boc-PLPLP (10 μM)+WRW^4 (10 μM) was added […] prior to the addition of WKYMVm (100 nM).

[4] = test system: E. coli ingested by mouse neutrophils; assay: Neutrophil bactericidal activity in vitro; format: cell-based; details: antagonist 10 μM added 30 min prior to WKYMVm (100 nM); FIG. 3b
Method: To determine whether WKYMVm treatment increases bactericidal activity in vitro, mouse neutrophils were allowed to ingest E. coli for 1 h and were then stimulated with 0.1-1000 nM WKYMVm for 20 min. […] Adherent neutrophils were incubated with 10^6 opsonized E. coli for 1 h, and stimulated with vehicle (PBS) or WKYMVm (0.1, 1, 10, 100, and 1000 nM) for 1 h.
Because FPR1 and FPR2 are expressed in neutrophils (data not shown), this experiment investigated the roles of FPR1-1 and FPR2-mediated pathways in WKYMVm-induced bactericidal activity. […] Mouse neutrophils were isolated from peripheral blood using a Histopaque-1077 solution (Sigma) as described previously (Bae, Y. S., et al., J. Immunol. 171:6807-6813, 2003). Boc-PLPLP (10 μM), WRW^4 (10 μM), or Boc-PLPLP (10 μM)+WRW^4 (10 μM) was added 30 min prior to the addition of WKYMVm (100 nM). The number of viable bacteria in the neutrophils was then determined.
Neutrophil bactericidal activity was measured according to the method of Yan, J. J., et al., Nat. Med. 10:161-167, 2004. […] After washing away the unengulfed E. coli, the number of viable bacteria in the neutrophils was determined before and after incubation with several concentrations of WKYMVm or vehicle for 1 h. The percentage of bacteria killed was calculated as 100×(1−number of CFU after WKYMVm stimulation/number of CFU before WKYMVm stimulation). […]

## LESIFRSLLFRVM (MMK-1 peptide) [FPR-family agonist]
[1]
  therapeutic effect of FPR ligands and scrambled peptide: lower than that of WKYMVm

## N-formyl-Met-Leu-Phe (For-Met-Leu-Phe) [fMLF, FPR-family agonist]
[1]
  therapeutic effect of FPR ligands and scrambled peptide: lower than that of WKYMVm

## N-t-butoxycarbonyl-Phe-Leu-Phe-Leu-Phe (Boc-FLFLF) [Boc-PLPLP, FPR1 antagonist]
[2]
  splenocyte proliferation, Th1 mouse model: inhibited
[3]
  reversal of WKYMVm-induced H2O2 generation by antagonist pre-treatment: partly reversed
[1]
  reversal of the therapeutic effects of WKYMVm by antagonist pre-treatment: only partly reversed
[4]
  WKYMVm-induced bactericidal activity after antagonist pre-treatment: significantly inhibited bactericidal activity

## Val-Trp-Met-Tyr-D-Met-Lys (VWMY[dM]K) [VWMYmK]
[1]
  therapeutic effect of FPR ligands and scrambled peptide: no therapeutic effect

## WHYMVm: analog of WKYMVm (WHYMV[dM])
[1]
  therapeutic effect of WKYMVm analogs on experimental sepsis: no therapeutic effects

## WKEMVm: analog of WKYMVm (WKEMV[dM])
[1]
  therapeutic effect of WKYMVm analogs on experimental sepsis: no therapeutic effects

## WKFMVm: analog of WKYMVm (WKFMV[dM])
[1]
  therapeutic effect of WKYMVm analogs on experimental sepsis: no therapeutic effects

## WKRMVm: analog of WKYMVm (WKRMV[dM])
[1]
  therapeutic effect of WKYMVm analogs on experimental sepsis: no therapeutic effects

## WKWMVm: analog of WKYMVm (WKWMV[dM])
[1]
  therapeutic effect of WKYMVm analogs on experimental sepsis: no therapeutic effects

## WKYMFm: analog of WKYMVm (WKYMF[dM])
[1]
  therapeutic effect of WKYMVm analogs on experimental sepsis: no therapeutic effects

## WKYMVV: analog of WKYMVm (WKYMVV)
[1]
  therapeutic effect of WKYMVm analogs on experimental sepsis: no therapeutic effects

## WKYMWm: analog of WKYMVm (WKYMW[dM])
[1]
  therapeutic effect of WKYMVm analogs on experimental sepsis: no therapeutic effects

## WKYMYm: analog of WKYMVm (WKYMY[dM])
[1]
  therapeutic effect of WKYMVm analogs on experimental sepsis: no therapeutic effects

## WRWWWW [WRW^4]
[2]
  splenocyte proliferation, Th1 mouse model: inhibited
[3]
  reversal of WKYMVm-induced H2O2 generation by antagonist pre-treatment: partly reversed
[1]
  reversal of the therapeutic effects of WKYMVm by antagonist pre-treatment: completely reversed
[4]
  WKYMVm-induced bactericidal activity after antagonist pre-treatment: significantly inhibited bactericidal activity

## WRYMVm: analog of WKYMVm (WRYMV[dM])
[1]
  therapeutic effect of WKYMVm analogs on experimental sepsis: no therapeutic effects
